Assay results published in patent EP1792623B1, “Use of extracts and constituents of leontopodium as enhancers of cholinergic function” (Leopold-Franzens-Universität Innsbruck, priority 2005, dated 2007).

Assays:
[1] = system: release of ACh in rat brain; assay: ACh release in nucleus accumbens, push-pull technique, after i.c.v. application; assay type: in vivo, Sprague-Dawley rats; details: 2 µmol i.c.v.
Description: Surgery and push-pull technique: Protocols of experiments were approved by the Bundesministerium für Wissenschaft, Forschung and Kunst, Austria, Kommission für Tierversuchsangelegenheitem. Sprague-Dawley rats (250-280 g) were anaesthetized with urethane 1.2 g/kg. i.p. The head was fixed in a stereotaxic frame and a push-pull cannula (outer tubing: o.d. 0.75 mm, i.d. 0.41 mm; inner tubing: o.d. 0.26 mm, i.d. 0.13 mm) was mounted on a microdrive. This was stereotaxically inserted through a hole in the skull into the nucleus accumbens (coordinates, mm from bregma: AP, +1.2, L, +2.5; V, -7.8) (Paxinos G. Watson H. (1998) The rat brain in stereotaxic coordinates, 4th edn. Academic Press, Sidney.). […] After 1 h of the cannula insertion the samples were collected into tubes kept at -20° C in time periods of 10 min and then stored at -80°C until acetylcholine (ACh) was determined. […]
Determination of acetylcholine (ACh): ACh content in the samples was determined by HPLC with a cation-exchanging analytical column and a post-column reactor followed by electrochemical detection (Damsma et al, 1997; Prast et al; 1998). […] The peroxide was electrochemically detected by a UniJet platin electrode (3mm) at +500 mV with an amperometric detector (BAS LC-4, Bioanalytical Systems, West Lafayette, IN, USA). […] ACh was quantified with external standards that were injected at the beginning and the end of the analysis. […]

acetylcholinesterase = assay type: biochemical; details: c = 100 mM, after 60 min, in comparison to medium control
Method: Experiments are carried out applying Ellman's method in a 96-well microplate assay described by Ingkaninan et al, Journal of Chromatography A 827 (2000) p. 6173 and Rhee et al, Journal of Chromatography A 915 (2001) p. 217-223. In addition to buffer A described above, a buffer containing 0.1 M NaCl and 0.02 M MgClx2.6 H2O in buffer A is used for preparing a 3 mM solution of DTNB. For the microplate assay the substrate ATCI is dissolved 15 mM in water (HPLC grade). The enzyme stock solution is diluted with buffer A to get 0.22 U/ml. In the 96-well plates, 25 µl of 15 mM ATCl, 125 µl of 3 mM DTNB, 50 µl of buffer A, and 25 µl of sample (10 mM in MeOH, respectively DMSO (dimethylsulfoxide), diluted ten times with buffer A) are added. […] […] The absorbance of the product (2-nitrobenzoate-5-mercapto thioline) is measured at 405 nm with a Chameleon 5025 (Hidex, Finland) microplate reader 0, 15, 30, 45 and 60 minutes after adding 25 µl of 0.22 U/ml acetylcholinesterase-solution to the reaction mixture. All experiments are performed 4 times (n=4) and the data are statistically processed using the SPSS 11.5 program package. Percentage of inhibition is calculated by comparing the rates for the sample to the blank (10% MeOH, resp. DMSO, in buffer).

14-acetoxy-isocomene was tested, and the “release of ACh in rat brain” value [1] was “significantly enhance the concentration of neurotransmitters in the CNS” and the “inhibition (%)” value (acetylcholinesterase) was 1.4 ± 8.1%.
